The values that follow come from US10363253B2, “Combination products for the treatment of RSV” (priority 2016, dated 2019).

The subject of this assay is rgRSV224, an engineered RSV strain that encodes for eGFP. Format: cell-based. As to conditions: A = 0. How it is done:
To evaluate their combined antiviral effect against RSV, in vitro combination studies were performed with JNJ-53718678 (“compound A”) and various compounds with different mechanisms-of-action (“compound B”). In short, 9 concentrations of Compound A were combined with 6 or 7 concentrations of a certain compound B. HeLa cells were infected with rgRSV224, an engineered RSV strain that encodes for eGFP (Hallak L K, Spillmann D, Collins P L, Peeples M E. Glycosaminoglycan sulfation requirements for respiratory syncytial virus infection; Journal of Virology (2000), 74(22), 10508-13), in the presence of various concentrations of compound A and compound B individually or in combination.
Compound stock solutions were 5 mM in 100% DMSO, with following exceptions: ribavirin, 20 mM; A 60444, 10 mM; CR9501, 141 μM in PBS; palivizumab, 156 μM in PBS; MDT 637, 100 μM in methanol. First, the compounds were serially diluted in 3-fold dilution series in DMSO; CR9501 and palivizumab were serially diluted in cell culture medium, and MDT 637 in methanol. The concentration series were diluted 100-fold in cell culture medium to achieve a combination matrix. 10 μL of these compound solutions were transferred to black 384-well clear-bottom tissue-culture treated plates. Next, 10 μL of a […] HeLa cell suspension was added to achieve 3000 cells per well. Finally, 10 μL of diluted virus stock was added to achieve an MOI of 1. The final DMSO concentration of all wells was 0.5% DMSO, except for the MDT 637 experiment where it was 0.25% DMSO+0.25% methanol. Each combination of compound concentrations was tested in 4 replicates on 3 separate plates, resulting in a total of 12 replicates. The plates were incubated for 3 days at 37° C. in a humidified atmosphere at 5% CO2. The GFP signal was measured with PerkinElmer EnVision apparatus using a 405 nm filter.
The method of Harbron (Statistics in Medicine, 2010, DOI:10.1002/sim3916) was used to assess synergy. Using the Loewe definition, two compounds are characterized as being additive, synergistic or antagonistic by:
where d1 and d2 represent the doses of the two compounds that in combination produce an effect y, and Dy,1 and Dy,2 represent the doses of the two compounds that produce the same effect, y, when administered as a monotherapy. A 3PL model (3-parameter log-logistic model) was used for the monotherapy dose-response data, where the baseline response was fixed at one.
Following Harbron's approach, the following models were fitted to the data: • “Additive”: assuming no interaction between the two compounds • “Uniform”: assuming a constant interaction index τ across all dose combinations • “Linear A”: assuming the interaction index linearly depends on the log 10 dose of compound A: z=τ1+τ2 log 10(dA) • “Separate A”: assuming the interaction index τ takes a separate value for each dose of compound A The latter two models were also considered for compound B: • “Linear B”: assuming the interaction index linearly τ depends on the log 10 dose of compound B: τ=τ1+τ2 log 10(dB) • “Separate B”: assuming the interaction index τ takes a separate value for each dose of compound B

Like-named read-outs stand apart in the source and are kept apart here.

In the case of `COc1ccc(CCNCCCN2C(=O)c3c(cc(N)c4nc(-c5ccc(C)c([N+](=O)[O-])c5)[nH]c34)C(C)(C)C2=O)cc1OC` [CAS 851658-10-1, 4-amino-8-[3-[[2-(3,4-dimethoxyphenyl)ethyl]amino]propyl]-6,6-dimethyl-2-(4-methyl-3-nitrophenyl)-3H-imidazo[4,5-h]isoquinoline-7,9(6H,8H)-dione, reference compound], the “normalized GFP signal” value is recorded as 0.99 (B (CAS 851658-10-1) = 1.9); 0.97 (B (CAS 851658-10-1) = 5.7); 0.89 (B (CAS 851658-10-1) = 17); 0.74 (B (CAS 851658-10-1) = 51); 0.38 (B (CAS 851658-10-1) = 154); 0.05 (B (CAS 851658-10-1) = 463). Moreover, under “B (CAS 851658-10-1) = 1389”, the “normalized GFP signal” value came to 0.01.

Take `O=C(Nc1ccccc1F)N[C@H]1N=C(c2ccccc2)c2ccccc2NC1=O` [Compound A-60444, (S)-1-(2-fluorophenyl)-3-(2-oxo-5-phenyl-2,3-dihydro-1H-benzo[e][1,4]diazepin-3-yl) urea, reference compound]: the “normalized GFP signal” value (B (A-60444) = 34) is given as 1.00; the “normalized GFP signal” value (B (A-60444) = 103) turned out to be 1.00; the “normalized GFP signal” value (B (A-60444) = 309) came to 0.96; the “normalized GFP signal” value (B (A-60444) = 926) worked out at 0.93; the “normalized GFP signal” value (B (A-60444) = 2778) is recorded as 0.93; the “normalized GFP signal” value (B (A-60444) = 8333) is 0.75. Besides, where the note is “B (A-60444) = 25000”, the “normalized GFP signal” value is reported as 0.39.

Regarding `NC(=O)c1ncn([C@@H]2O[C@H](CO)[C@@H](O)[C@H]2O)n1` [ribavirin, 1-β-D-ribofuranosyl-1H-1,2,4-triazole-3-carboxamide, reference compound], the “normalized GFP signal” value stood at 1.00 (B (ribavirin) = 69); 0.98 (B (ribavirin) = 206); 0.98 (B (ribavirin) = 617); 0.97 (B (ribavirin) = 1852); 0.94 (B (ribavirin) = 5556); 0.83 (B (ribavirin) = 16667). Also, the “normalized GFP signal” value (B (ribavirin) = 50000) was determined as 0.13.

In the case of “palivizumab: monoclonal antibody CAS 188039-54-5”, the “normalized GFP signal” value reads like this: (B (palivizumab) = 0.0061) 1.05; (B (palivizumab) = 0.018) 1.01; (B (palivizumab) = 0.055) 0.97; (B (palivizumab) = 0.165) 1.01; (B (palivizumab) = 0.494) 0.89; (B (palivizumab) = 1.482) 0.33. Moreover, for the setting “B (palivizumab) = 4.447”, the “normalized GFP signal” value is on record as 0.06.
